Consider four compounds from US9199993B2, “8-azabicyclo[3.2.1]octyl-2-hydroxybenzamide compounds as mu opioid receptor antagonists” (THERAVANCE BIOPHARMA R&D IP, LLC, priority 2007, dated 2015).

Read-outs that look alike come from different tables or passages of the source.

For experiment [1], the target named is T1, human mu opioid receptor (Homo sapiens, UniProt P35372).
T1 construct: host or cells: CHO-K1
Kind of experiment: biochemical. The following applies: read-out: intrinsic activity (IA), bound [35S]GTPγS relative to DAMGO (IA=100).

Experiment [2] concerns the target T1, human mu opioid receptor. Put plainly: Radioligand binding assay on human mu opioid receptor.
Experiment [3] relates to loperamide-induced delayed gastric emptying. Put plainly: Rat gastric emptying assay (reversal of loperamide-induced delayed gastric emptying). As to conditions: administered orally, loperamide 1 mg/kg s.c., gastric emptying model. It is filed as in vivo.

T1 sequence (P35372 whole entry): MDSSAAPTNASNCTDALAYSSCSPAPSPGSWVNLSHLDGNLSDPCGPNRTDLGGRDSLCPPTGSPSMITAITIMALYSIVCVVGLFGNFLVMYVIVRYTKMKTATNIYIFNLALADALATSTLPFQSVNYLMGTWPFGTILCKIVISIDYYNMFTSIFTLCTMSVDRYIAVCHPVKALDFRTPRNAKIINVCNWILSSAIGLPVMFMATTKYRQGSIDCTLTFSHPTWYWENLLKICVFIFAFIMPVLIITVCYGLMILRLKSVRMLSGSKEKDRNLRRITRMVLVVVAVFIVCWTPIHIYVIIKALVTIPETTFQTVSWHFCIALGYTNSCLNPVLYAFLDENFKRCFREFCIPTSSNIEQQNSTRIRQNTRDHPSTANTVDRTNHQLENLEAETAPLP

On to `CCC(CC)CN(CCN1[C@@H]2CC[C@H]1C[C@@H](c1cccc(C(N)=O)c1O)C2)C(=O)[C@@H](O)CO` [Example 1, 3-endo-(8-{2-[((S)-2,3-Dihydroxypropionyl)-(2-ethylbutyl)-amino]ethyl}-8-azabicyclo[3.2.1]oct-3-yl)-2-hydroxybenzamide], for which the Emax on human mu opioid receptor [1] was -1%. Moreover, the Ki on human mu opioid receptor [2] came to 0.1 nM. For the same compound, in experiment [3], the “ID50, dose required for 50% reversal of the effects of loperamide” value (“ID50, dose required for 50% reversal” below) turned out to be 0.11 mg/kg.

In the case of `CCC(CC)CN(CCN1[C@@H]2CC[C@H]1C[C@@H](c1cccc(C(N)=O)c1O)C2)C(=O)CO` [Example 2, 3-endo-(8-2-[(2-Ethylbutyl)-(2-hydroxyacetyl)amino]-ethyl-8-azabicyclo[3.2.1]oct-3-yl)-2-hydroxybenzamide], the Ki on human mu opioid receptor [2] (displacement of [3H]-Diprenorphine 0.5 nM, CHO-K1 cell membranes, read-out: pKi at the human mu opioid receptor (converted)) was 0.1 nM.

`NC(=O)c1cccc(C2CC3CCC(C2)N3CCN(CC2CCC(F)(F)CC2)C(=O)CO)c1O` (stereo not drawn) [Example 4, 3-endo-(8-2-[(4,4-Difluorocyclohexylmethyl)-(2-hydroxyacetyl)-amino]ethyl-8-azabicyclo[3.2.1]oct-3-yl)-2-hydroxybenzamide]: the “ID50, dose required for 50% reversal” value in experiment [3] was 0.014 mg/kg.

On to `CC(C)(C)CN(CCN1[C@@H]2CC[C@H]1C[C@@H](c1cccc(C(N)=O)c1O)C2)C(=O)[C@@H](O)CO` [Example 6, 3-endo-(8-{2-[((S)-2,3-Dihydroxypropionyl)-(2,2-dimethylpropyl)amino]ethyl}-8-azabicyclo[3.2.1]oct-3-yl)-2-hydroxybenzamide], for which the Emax at human mu opioid receptor [1] was 9%. The compound also gave a Ki on human mu opioid receptor [2] of 0.251 nM. In addition, in experiment [3], the “ID50, dose required for 50% reversal” value amounted to 0.42 mg/kg.
